# From patent EP4818317A1, “POLYPEPTIDE FOR BIOSYNTHESIS OF 1,2-PROPANEDIOL AND USE THEREOF” (Tianjin University, priority 2023, dated 2025)
# How the values were obtained:
# [1] = tested on: Lactiplantibacillus plantarum 1,5-anhydroglucitol-6-phosphate isomerase LpYbiW (Uniprot A0A807DR53), SEQ ID NO: 2; test: Michaelis-Menten kinetics of LpYbiW, coupled with LpFsaA and EcGldA, NADH consumption at A340nm; assay type: biochemical; details: 100 nM activated LpYbiW, 20 mM Tris/HCl pH 7.5, 100 mM KCl, 5 µM LpFsaA, 5 µM EcGldA, 0.4 mM NADH, anaerobic glove box; substrate 1,5-anhydroglucitol-6-phosphate at varying concentrations
# Experimental: Continuous-wave X-band EPR spectroscopy was used to characterize the LpYbiW glycyl radical. A reaction system (200 µL) containing 20 mM Tris/HCl, (pH 7.5), 100 mM KCl, 100 µM titanium(III) citrate, 1 mM SAM, 80 µM reconstituted LpYbiY, and 40 µM LpYbiW was incubated for 15 minutes at room temperature in a glove box. 10% glycerol was added, and a resulting mixture was loaded into an EPR tube (Wilmad Lab Glass, 734-LPV-7) with an outer diameter of 4 mm and a length of 8 inches. The tube was sealed with a rubber stopper, removed from the glove box, and frozen using liquid nitrogen before EPR analysis. The experimental spectrum of the glycyl radical was modeled using Bruker Xepr spin fitting to obtain g-values, hyperfine coupling constants, and line widths. Double integration of the simulated spectrum was used to measure the spin concentration. […]
# The Michaelis-Menten kinetic parameters of LpYbiW were determined by coupling with LpFsaA and EcGldA. The reaction rate of LpYbiW was monitored by measuring NADH consumption at A340nm. The absorbance change of the reaction system at 340 nm was measured every 5 seconds using the cuvette mode of an ultra-micro UV-visible spectrophotometer (Nanophotometer) in a glove box (1 cm light path). […]
# [2] = molecular target: T1, Escherichia coli strain K12 1,5-anhydromannitol-6-phosphate isomerase EcPflD (Uniprot P32674), SEQ ID NO: 98 (Escherichia coli, UniProt P32674); test: Michaelis-Menten kinetics of EcPflD, coupled with EcFsaB and EcGldA, decrease in A340nm; assay type: biochemical; details: 40 nM activated EcPflD, 20 mM Tris/HCl pH 7.5, 100 mM KCl, 2 µM EcFsaB, 2 µM EcGldA, 0.4 mM NADH, anaerobic glove box; substrate 1,5-AM-6P at various concentrations
# T1 sequence (P32674 1-765): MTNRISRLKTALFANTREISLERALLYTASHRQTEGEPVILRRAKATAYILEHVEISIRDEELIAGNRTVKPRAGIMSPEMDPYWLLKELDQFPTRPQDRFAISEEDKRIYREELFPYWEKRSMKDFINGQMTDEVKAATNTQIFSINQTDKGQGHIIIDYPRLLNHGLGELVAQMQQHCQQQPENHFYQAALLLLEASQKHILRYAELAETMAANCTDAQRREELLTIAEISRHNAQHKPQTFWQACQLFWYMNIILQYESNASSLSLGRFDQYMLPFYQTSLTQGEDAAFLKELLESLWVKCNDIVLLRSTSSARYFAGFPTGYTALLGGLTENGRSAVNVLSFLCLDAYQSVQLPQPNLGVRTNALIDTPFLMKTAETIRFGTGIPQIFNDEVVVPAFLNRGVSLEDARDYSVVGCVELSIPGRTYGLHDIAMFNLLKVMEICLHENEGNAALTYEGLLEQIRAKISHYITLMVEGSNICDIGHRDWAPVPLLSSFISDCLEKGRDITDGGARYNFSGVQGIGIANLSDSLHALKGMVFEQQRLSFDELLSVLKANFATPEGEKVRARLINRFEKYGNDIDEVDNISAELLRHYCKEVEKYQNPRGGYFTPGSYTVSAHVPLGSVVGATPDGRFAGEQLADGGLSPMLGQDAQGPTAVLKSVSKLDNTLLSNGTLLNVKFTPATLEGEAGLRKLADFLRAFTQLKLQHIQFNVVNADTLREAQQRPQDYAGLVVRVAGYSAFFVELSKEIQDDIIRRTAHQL
# Experimental: (§1) The EcPflD glycine radical was characterized using continuous-wave X-band electron paramagnetic resonance (EPR) spectroscopy. A reaction system (200 µL) containing 20 mM Tris/HCl, (pH 7.5), 100 mM KCl, 100 µM titanium(III) citrate, 1 mM SAM, 80 µM reconstituted EcPflC, and 40 µM EcPflD was incubated for 15 minutes at room temperature in a glove box. Glycerol (10%) was added, and a resulting mixture was transferred to an EPR tube with an outer diameter of 4 mm and a length of 8 inches (Wilmad Lab Glass, 734-LPV-7). The tube was sealed with a rubber stopper, removed from the glove box, and frozen in liquid nitrogen prior to EPR analysis. […]
# (§2) A reaction mixture containing 20 mM Tris/HCl, (pH 7.5), 100 mM KCl, 10 mM 1,5-AM-6P, 40 nM activated EcPflD, 5 µM EcFsaB, 5 µM EcGldA, and 0.4 mM NADH was incubated in a 1 cm Eppendorf cuvette in a glove box at room temperature. Absorbance at 340 nm was monitored every 5 seconds using a cuvette mode of an ultra-micro UV-Vis spectrophotometer (Hangzhou Miu Instruments Co., Ltd.) inside the glove box. […]
# (§3) The reaction system containing 20 mM Tris/HCl, (pH 7.5), 100 mM KCl, 40 nM activated EcPflD and 1,5-AM-6P with various substrate concentrations, 2 µM EcFsaB, 2 µM EcGldA, and 0.4 mM NADH was measured using a cuvette mode of an ultra-micro UV-Vis spectrophotometer (Hangzhou Miu Instruments Co., Ltd.) in a 1 cm Eppendorf cuvette inside a glove box. […]
# [3] = substrate: O=P(O)(O)OC[C@H]1OC[C@@H](O)[C@@H](O)[C@@H]1O; test: as above; assay type: biochemical, Escherichia coli strain K12; details: other: 40 nM activated EcPflD, 20 mM Tris/HCl pH 7.5, 100 mM KCl, 2 µM EcFsaB, 2 µM EcGldA, 0.4 mM NADH, anaerobic glove box, substrate 1,5-AM-6P at various concentrations
# Experimental: as §1, §2, §3
molecule,measurement,setting,value
"O=P(O)(O)OC[C@H]1OC[C@H](O)[C@@H](O)[C@@H]1O [1,5-AG-6P, 1,5-anhydroglucitol-6-phosphate]",Km,[1],36.5 ± 6.66 mM
same,kcat,[1],43.38 ± 2.96 s^-1/LpYbiW
"O=P(O)(O)OC[C@H]1OC[C@@H](O)[C@@H](O)[C@@H]1O [1,5-AM-6P, 1,5-anhydromannitol-6-phosphate]",kcat,[2],33.47 ± 0.79 s^-1/EcPflD
"Escherichia coli strain K12 1,5-anhydromannitol-6-phosphate isomerase EcPflD (Uniprot P32674), SEQ ID NO: 98 (Escherichia coli K-12) (protein) MTNRISRLKTALFANTREISLERALLYTASHRQTEGEPVILRRAKATAYILEHVEISIRDEELIAGNRTVKPRAGIMSPEMDPYWLLKELDQFPTRPQDRFAISEEDKRIYREELFPYWEKRSMKDFINGQMTDEVKAATNTQIFSINQTDKGQGHIIIDYPRLLNHGLGELVAQMQQHCQQQPENHFYQAALLLLEASQKHILRYAELAETMAANCTDAQRREELLTIAEISRHNAQHKPQTFWQACQLFWYMNIILQYESNASSLSLGRFDQYMLPFYQTSLTQGEDAAFLKELLESLWVKCNDIVLLRSTSSARYFAGFPTGYTALLGGLTENGRSAVNVLSFLCLDAYQSVQLPQPNLGVRTNALIDTPFLMKTAETIRFGTGIPQIFNDEVVVPAFLNRGVSLEDARDYSVVGCVELSIPGRTYGLHDIAMFNLLKVMEICLHENEGNAALTYEGLLEQIRAKISHYITLMVEGSNICDIGHRDWAPVPLLSSFISDCLEKGRDITDGGARYNFSGVQGIGIANLSDSLHALKGMVFEQQRLSFDELLSVLKANFATPEGEKVRARLINRFEKYGNDIDEVDNISAELLRHYCKEVEKYQNPRGGYFTPGSYTVSAHVPLGSVVGATPDGRFAGEQLADGGLSPMLGQDAQGPTAVLKSVSKLDNTLLSNGTLLNVKFTPATLEGEAGLRKLADFLRAFTQLKLQHIQFNVVNADTLREAQQRPQDYAGLVVRVAGYSAFFVELSKEIQDDIIRRTAHQL",Km,[3],1.33 ± 0.12 mM
